{"source": "patent US20100292306A1", "about": "“Compositions And Methods For The Treatment Of Muscular Dystrophy” (priority 2005, published 2010)", "key": {"mdx gastrocnemius muscle": {"tested_on": "mdx gastrocnemius muscle", "test": "Gastrocnemius twitch tension at optimal length"}, "nuclear p65 activation": {"tested_on": "nuclear p65 activation", "test": "TransAM NF-κB ELISA of nuclear p65 activation in mdx costal diaphragm", "assay_type": "in vivo, mdx mice", "experimental": "Cytosolic and nuclear fractions were obtained from isolated costal diaphragm using techniques that were slightly modified from Kumar and Boriek (2003). The muscles were removed from vehicle and drug-treated euthanized mdx mice at the end of the treatment period, and were flash-frozen and stored at −80° C. for a period of 1 to 4 weeks. The muscles were then thawed and weighed before being homogenized on ice using a mortar and pestle in low salt lysis (LSL) buffer (1 mg muscle wet weight/18 μl solution; in mM: 10 HEPES, 10 KCl, 1.5 MgCl2, 0.1 EDTA, 0.1 EGTA, 1 dithiothreitol (DTT), 0.5 phenylmethylsulfonylfluoride (PMSF); 0.5 mg/ml benzamidine, 4.0 μl/ml protease inhibitor cocktail Sigma #8340 (PIC) to produce the following final concentrations—2.1 μg/ml leupeptin, 3.85 μg/ml aprotinin, 0.416 mM AEBSF (Sigma A8456), 16 μM bestatin, 6 μM pepstatin A, 5.6 μM E64; pH 7.9). To lyse the cells, the ground tissue was then subjected to 2 freeze-thaw cycles (5 min freeze on dry ice followed by thawing at room temperature), and was subsequently vortexed and centrifuged (13,000 rpm, 15 s). The supernatant cytosolic extract was immediately frozen (−80° C.) for subsequent analyses as needed, while the nuclear pellet was washed in 50 μl LSL (2 times) before being re-suspended on ice in a high salt nuclear extraction buffer (in mM: 20 HEPES, 420 NaCl, 1 EDTA, 1 EGTA, 1 DTT, 0.5 PMSF; 25% glycerol, 0.5 mg/ml benzamidine, 4.0 μl/ml PIC; pH 7.9) at a ratio of 4 μl of solution per mg muscle wet weight. Preparations were incubated on ice for 30 min and vortexed for 10 s every 5 min before being centrifuged (13,000 rpm, 6 min) at 4° C. The supernatant nuclear extract was then removed and frozen (−80° C.) for subsequent analyses. Potential contamination of nuclear extracts with cytoplasmic proteins was less than 5%. Protein determinations for each fraction were obtained using the Bradford assay.\nThe Trans-Am assay (Active Motif; Carlsbad, Calif.) was used to determine nuclear NF-κB activation in nuclear fractions which were applied to the 96 well ELISA plates at 2-20 μg protein. The p65 primary antibody (catalogue number 40096) was used to detect p65 bound to oligonucleotide in vehicle and drug-treated preparations in accordance with kit instructions. A nuclear extract from Jurkat cells was routinely run as a positive control in association with each set of control and experimental samples.\nHorizontal dashed lines indicate average levels observed in nondystrophic, vehicle, and UDCA treated preparations as indicated. In each case, percent recovery is determined by dividing the mean improvement observed in the UDCA treated preparation (UDCA-vehicle) from the deficit observed in the vehicle-treated preparation (nondystrophic-vehicle mdx). Mdx mice were treated for 30 days beginning at 1 month of age. Horizontal dashed lines in (A) and (B) representing nondystrophic values were obtained from a cohort of nondystrophic mice at 2 months of age. […] The results were obtained from two separate groups of vehicle and UDCA treated preparations that were assayed using two different 96 well plates. For each plate, the absorbance for each sample was normalized to the average absorbance determined for the vehicle-treated preparations on that plate. […] Millman et al., 2007. N is the number of mice and preparations in each condition. Shown are the means and standard errors. […] indicate p<0.05 and p<0.01, respectively, between vehicle and UDCA treated preparations. […]"}}}
{"smiles": "S=C(S)N1CCCC1", "note": "[PDTC, pyrrolidine dithiocarbamate]", "values": [{"measurement": "improvement in average twitch tension relative to vehicle-injected", "setting": "mdx gastrocnemius muscle; mature mdx (about 15 months), 50 mg/kg daily, average 72 days", "result": 52, "unit": "%"}, {"measurement": "twitch tension development", "setting": "mdx gastrocnemius muscle; mature mdx mice, average age 15 months at sacrifice", "result": "improves"}, {"measurement": "improvement in twitch tension/gm relative to vehicle-injected", "setting": "mdx gastrocnemius muscle; mature mdx, just failed to reach statistical significance (p>=0.05)", "result": 45, "unit": "%"}, {"measurement": "increase in twitch tension vs vehicle-treated", "setting": "mdx gastrocnemius muscle; young adult (2 month old) mdx", "result": 13, "unit": "%"}, {"measurement": "increase in twitch tension/mg muscle weight vs vehicle-treated", "setting": "mdx gastrocnemius muscle; young adult (2 month old) mdx", "result": 11, "unit": "%"}, {"measurement": "twitch tension development", "setting": "mdx gastrocnemius muscle; young adult mdx mice", "result": "improves"}, {"measurement": "reduction of nuclear p65 activation", "setting": "nuclear p65 activation; mature adult mdx, PDTC 50 mg/kg/day ip 30 days, not significant, p=0.4, N=4 vehicle, N=3 PDTC", "result": 23, "unit": "%"}, {"measurement": "effect on nuclear p65 activation", "setting": "nuclear p65 activation; young adult mdx, PDTC 60 days beginning at 30 days of age, N=5 per group", "result": "no effect"}]}
